In PubChem BioAssay AID1963437 (Molecular Pharmacology Branch, DTP, NCI, 2024):
Each block holds one compound with its values, some of them ahead of it.

Tested on: OVCAR-8 complex spheroid, growth inhibition
Assay: Anticancer human tumor OVCAR-8 cell line growth inhibition [Asc];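 further: spheroids exposed to agents for 7 days before readout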;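 on viability, T/C: percent viability relative to DMSO vehicle wells taken as 100%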
Details: for IC50: curve of first compound; for viability, T/C: stronger effect = lower value
Summary of the method: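 Complex solid-tumor spheroids incorporating human endothelial and mesenchymal stem cells received single agents or combinations over half-log dilution ranges anchored to clinical Cmax.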

[1] = second compound 0.0316 µM, first compound 0.0316 µM
[2] = second compound 0.0316 µM, first compound 0.1 µM
[3] = second compound 0.0316 µM, first compound 0.316 µM
[4] = second compound 0.0316 µM, first compound 1 µM
[5] = second compound 0.1 µM, first compound 0.0316 µM
[6] = second compound 0.1 µM, first compound 0.1 µM
[7] = second compound 0.1 µM, first compound 0.316 µM
[8] = second compound 0.1 µM, first compound 1 µM
[9] = second compound 0.316 µM, first compound 0.0316 µM
[10] = second compound 0.316 µM, first compound 0.1 µM
[11] = second compound 0.316 µM, first compound 0.316 µM
[12] = second compound 0.316 µM, first compound 1 µM
[13] = second compound 1 µM, first compound 0.0316 µM
[14] = second compound 1 µM, first compound 0.1 µM
[15] = second compound 1 µM, first compound 0.316 µM
[16] = second compound 1 µM, first compound 1 µM
[17] = second compound 3.16 µM, first compound 0.0316 µM
[18] = second compound 3.16 µM, first compound 0.1 µM
[19] = second compound 3.16 µM, first compound 0.316 µM
[20] = second compound 3.16 µM, first compound 1 µM
[21] = second compound 10 µM, first compound 0.0316 µM
[22] = second compound 10 µM, first compound 0.1 µM
[23] = second compound 10 µM, first compound 0.316 µM
[24] = second compound 10 µM, first compound 1 µM

IC50 (second compound 0.0316 µM): > 10 µM
IC50 (second compound 0.1 µM): > 10 µM
IC50 (second compound 0.316 µM): > 10 µM
IC50 (second compound 1 µM): > 10 µM
IC50 (second compound 3.16 µM): > 10 µM
IC50 (second compound 10 µM): > 10 µM
SMILES: C#Cc1c(F)ccc2cc(O)cc(-c3ncc4c(N5CC6CCC(C5)N6)nc(OCC56CCCN5CC(F)C6)nc4c3F)c12 (stereo unspecified) + Cc1c(S(C)(=O)=O)c(-c2cc(F)cc(N3CCN(c4ccc(NS(=O)(=O)c5ccc(NC(CCN6CCC(C(=O)OCCCP(=O)(O)O)CC6)CSc6ccccc6)c(S(=O)(=O)C(F)(F)F)c5)cc4)CC3)c2)c(-c2ccc(Cl)cc2)n1C(C)C
viability, T/C [1]: 86.8%
viability, T/C [2]: 97.1%
viability, T/C [3]: 87.3%
viability, T/C [4]: 76.6%
viability, T/C (second compound 0.0316 µM, first compound 3.16 µM): 84.9%
viability, T/C (second compound 0.0316 µM, first compound 10 µM): 99.8%
viability, T/C [5]: 85.2%
viability, T/C [6]: 72.8%
viability, T/C [7]: 90.1%
viability, T/C [8]: 85.5%
viability, T/C (second compound 0.1 µM, first compound 3.16 µM): 90.4%
viability, T/C (second compound 0.1 µM, first compound 10 µM): 84.7%
viability, T/C [9]: 78.2%
viability, T/C [10]: 102%
viability, T/C [11]: 95.4%
viability, T/C [12]: 105%
viability, T/C (second compound 0.316 µM, first compound 3.16 µM): 94%
viability, T/C (second compound 0.316 µM, first compound 10 µM): 107%
viability, T/C [13]: 95.1%
viability, T/C [14]: 79%
viability, T/C [15]: 84.6%
viability, T/C [16]: 111%
viability, T/C (second compound 1 µM, first compound 3.16 µM): 106%
viability, T/C (second compound 1 µM, first compound 10 µM): 116%
viability, T/C [17]: 85.1%
viability, T/C [18]: 83.2%
viability, T/C [19]: 89.8%
viability, T/C [20]: 92.4%
viability, T/C (second compound 3.16 µM, first compound 3.16 µM): 102%
viability, T/C (second compound 3.16 µM, first compound 10 µM): 108%
viability, T/C [21]: 91.5%
viability, T/C [22]: 92.2%
viability, T/C [23]: 81.1%
viability, T/C [24]: 113%
viability, T/C (second compound 10 µM, first compound 3.16 µM): 94.2%
viability, T/C (second compound 10 µM, first compound 10 µM): 122%

IC50 (second compound 0.0316 µM): > 1 µM
IC50 (second compound 0.1 µM): > 1 µM
IC50 (second compound 0.316 µM): > 1 µM
IC50 (second compound 1 µM): > 1 µM
IC50 (second compound 3.16 µM): > 1 µM
IC50 (second compound 10 µM): > 1 µM
SMILES: CNC(C)C(=O)NC1CN(S(=O)(=O)c2cccc(S(=O)(=O)N3CCC4CCC(C(=O)NC(c5ccccc5)c5ccccc5)N4C(=O)C(NC(=O)C(C)NC)C3)c2)CCC2CCC(C(=O)NC(c3ccccc3)c3ccccc3)N2C1=O (stereo unspecified) + Cc1c(S(C)(=O)=O)c(-c2cc(F)cc(N3CCN(c4ccc(NS(=O)(=O)c5ccc(NC(CCN6CCC(C(=O)OCCCP(=O)(O)O)CC6)CSc6ccccc6)c(S(=O)(=O)C(F)(F)F)c5)cc4)CC3)c2)c(-c2ccc(Cl)cc2)n1C(C)C
viability, T/C (second compound 0.0316 µM, first compound 0.00316 µM): 97.5%
viability, T/C (second compound 0.0316 µM, first compound 0.01 µM): 94.6%
viability, T/C [1]: 88.4%
viability, T/C [2]: 90.9%
viability, T/C [3]: 67.5%
viability, T/C [4]: 57.5%
viability, T/C (second compound 0.1 µM, first compound 0.00316 µM): 92.2%
viability, T/C (second compound 0.1 µM, first compound 0.01 µM): 84.5%
viability, T/C [5]: 80.8%
viability, T/C [6]: 76.5%
viability, T/C [7]: 64.5%
viability, T/C [8]: 59.7%
viability, T/C (second compound 0.316 µM, first compound 0.00316 µM): 106%
viability, T/C (second compound 0.316 µM, first compound 0.01 µM): 79.2%
viability, T/C [9]: 86.8%
viability, T/C [10]: 80.3%
viability, T/C [11]: 58.9%
viability, T/C [12]: 53.1%
viability, T/C (second compound 1 µM, first compound 0.00316 µM): 123%
viability, T/C (second compound 1 µM, first compound 0.01 µM): 97.1%
viability, T/C [13]: 86.8%
viability, T/C [14]: 80.6%
viability, T/C [15]: 59.4%
viability, T/C [16]: 60.1%
viability, T/C (second compound 3.16 µM, first compound 0.00316 µM): 91.2%
viability, T/C (second compound 3.16 µM, first compound 0.01 µM): 86.8%
viability, T/C [17]: 84.7%
viability, T/C [18]: 67.3%
viability, T/C [19]: 57.5%
viability, T/C [20]: 58.2%
viability, T/C (second compound 10 µM, first compound 0.00316 µM): 101%
viability, T/C (second compound 10 µM, first compound 0.01 µM): 78.2%
viability, T/C [21]: 78.9%
viability, T/C [22]: 60.2%
viability, T/C [23]: 52%
viability, T/C [24]: 59.2%

IC50 (second compound 0.0316 µM): > 3 µM
IC50 (second compound 0.1 µM): > 3 µM
IC50 (second compound 0.316 µM): > 3 µM
IC50 (second compound 1 µM): > 3 µM
IC50 (second compound 3.16 µM): > 3 µM
IC50 (second compound 10 µM): > 3 µM
SMILES: Cc1nc(N2CCC3(CC2)COC(C)C3N)c(CO)nc1Sc1ccnc(N)c1Cl (stereo unspecified) + Cc1c(S(C)(=O)=O)c(-c2cc(F)cc(N3CCN(c4ccc(NS(=O)(=O)c5ccc(NC(CCN6CCC(C(=O)OCCCP(=O)(O)O)CC6)CSc6ccccc6)c(S(=O)(=O)C(F)(F)F)c5)cc4)CC3)c2)c(-c2ccc(Cl)cc2)n1C(C)C
viability, T/C (second compound 0.0316 µM, first compound 0.00949 µM): 97%
viability, T/C (second compound 0.0316 µM, first compound 0.03 µM): 96.6%
viability, T/C (second compound 0.0316 µM, first compound 0.0949 µM): 159%
viability, T/C (second compound 0.0316 µM, first compound 0.3 µM): 188%
viability, T/C (second compound 0.0316 µM, first compound 0.949 µM): 226%
viability, T/C (second compound 0.0316 µM, first compound 3 µM): 206%
viability, T/C (second compound 0.1 µM, first compound 0.00949 µM): 91.3%
viability, T/C (second compound 0.1 µM, first compound 0.03 µM): 148%
viability, T/C (second compound 0.1 µM, first compound 0.0949 µM): 152%
viability, T/C (second compound 0.1 µM, first compound 0.3 µM): 190%
viability, T/C (second compound 0.1 µM, first compound 0.949 µM): 212%
viability, T/C (second compound 0.1 µM, first compound 3 µM): 202%
viability, T/C (second compound 0.316 µM, first compound 0.00949 µM): 97.4%
viability, T/C (second compound 0.316 µM, first compound 0.03 µM): 132%
viability, T/C (second compound 0.316 µM, first compound 0.0949 µM): 176%
viability, T/C (second compound 0.316 µM, first compound 0.3 µM): 200%
viability, T/C (second compound 0.316 µM, first compound 0.949 µM): 231%
viability, T/C (second compound 0.316 µM, first compound 3 µM): 175%
viability, T/C (second compound 1 µM, first compound 0.00949 µM): 92.6%
viability, T/C (second compound 1 µM, first compound 0.03 µM): 139%
viability, T/C (second compound 1 µM, first compound 0.0949 µM): 176%
viability, T/C (second compound 1 µM, first compound 0.3 µM): 210%
viability, T/C (second compound 1 µM, first compound 0.949 µM): 205%
viability, T/C (second compound 1 µM, first compound 3 µM): 169%
viability, T/C (second compound 3.16 µM, first compound 0.00949 µM): 102%
viability, T/C (second compound 3.16 µM, first compound 0.03 µM): 139%
viability, T/C (second compound 3.16 µM, first compound 0.0949 µM): 182%
viability, T/C (second compound 3.16 µM, first compound 0.3 µM): 221%
viability, T/C (second compound 3.16 µM, first compound 0.949 µM): 167%
viability, T/C (second compound 3.16 µM, first compound 3 µM): 144%
viability, T/C (second compound 10 µM, first compound 0.00949 µM): 110%
viability, T/C (second compound 10 µM, first compound 0.03 µM): 152%
viability, T/C (second compound 10 µM, first compound 0.0949 µM): 177%
viability, T/C (second compound 10 µM, first compound 0.3 µM): 206%
viability, T/C (second compound 10 µM, first compound 0.949 µM): 174%
viability, T/C (second compound 10 µM, first compound 3 µM): 121%
